Source: ChEMBL document CHEMBL1201862, “PubChem BioAssay data set” (2004)
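Growth conditions: 96-well plates. Treatment: test compound, 48 hours, 5 concentrations. Analysis: linear interpolation between bracketing concentrations; unreached endpoints set to highest concentration. Abbreviation: GI50, concentration required for 50% inhibition of growth.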 The source made the active and inactive calls. Rule as the data show it: active = GI50 up to about 1.1 µM and inactive = higher.

Experiments:
Test in all cases: DTP human tumour cell line panel, 48 h
LXFL 529 = system: LXFL 529
SNB-78 = system: SNB-78
RXF 631 = system: RXF 631
HOP-18 = system: HOP-18
DMS-114 = system: DMS-114
KM-20L2 = system: KM-20L2
XF498 = system: XF498
M19-MEL = system: M19-MEL
DLD-1 = system: DLD-1

Measured: GI50

COc1ccc(NC(=O)CC/C(CC(=O)c2ccco2)=N/Nc2ccc([N+](=O)[O-])cc2[N+](=O)[O-])cc1
inactive: LXFL 529 43.2 µM | SNB-78 > 100 µM | RXF 631 38.8 µM | HOP-18 26.2 µM | DMS-114 23.6 µM | KM-20L2 > 100 µM | XF498 22.8 µM | M19-MEL 58.1 µM

O=C(NCCOCCO)c1ccc(O)cc1
inactive: LXFL 529 > 100 µM | HOP-18 > 100 µM | DLD-1 > 100 µM | DMS-114 > 100 µM | KM-20L2 > 100 µM | XF498 55 µM | M19-MEL > 100 µM

NC(=O)Nc1c([N+](=O)[O-])cc(C(F)(F)F)cc1[N+](=O)[O-]
inactive: LXFL 529 > 100 µM | SNB-78 > 100 µM | RXF 631 65.9 µM | KM-20L2 29.2 µM | XF498 53.6 µM

CC1(C)CCC(Sc2ccccc2)O1 (centres undefined)
inactive: LXFL 529 > 100 µM | SNB-78 > 100 µM | DLD-1 > 100 µM | DMS-114 > 100 µM | KM-20L2 > 100 µM | XF498 > 100 µM | M19-MEL > 100 µM

COCCCCCC(=O)CP(=O)(OC)OC
inactive: LXFL 529 > 100 µM | SNB-78 > 100 µM | HOP-18 > 100 µM | DLD-1 > 100 µM | DMS-114 > 100 µM | KM-20L2 > 100 µM | XF498 > 79.6 µM | M19-MEL > 100 µM

O=C1c2ccccc2C2(O)Nc3c(ccc4ccccc34)C12O (centres undefined)
inactive: LXFL 529 67.8 µM | SNB-78 > 100 µM | HOP-18 > 100 µM | DLD-1 > 100 µM | DMS-114 60 µM | KM-20L2 > 100 µM | M19-MEL > 100 µM

O=C(CCc1nnc2s/c(=C\c3ccccc3)c(=O)n12)Nc1cc(Cl)ccc1Cl
inactive: LXFL 529 > 100 µM | SNB-78 > 100 µM | RXF 631 > 100 µM | HOP-18 > 100 µM | DLD-1 > 100 µM | DMS-114 > 100 µM | KM-20L2 > 100 µM | XF498 > 100 µM | M19-MEL > 100 µM

O=C1OC(/C=C/c2ccccc2)C(=O)C1=O (centres undefined)
inactive: LXFL 529 > 100 µM | HOP-18 23.8 µM | DLD-1 > 100 µM | KM-20L2 > 100 µM | XF498 > 100 µM | M19-MEL > 100 µM

CN(C)c1ccc(/C=c2\sc3nc4ccccc4n3c2=O)cc1
inactive: LXFL 529 > 100 µM | SNB-78 > 100 µM | RXF 631 > 100 µM | HOP-18 > 100 µM | DLD-1 > 100 µM | DMS-114 > 100 µM | KM-20L2 > 100 µM | XF498 > 100 µM | M19-MEL > 100 µM

CCCCCCCCCCCCCCCCOC(=O)C(C(=O)OCCCCCCCCCCCCCCCC)[N+](C)(C)CCOC(C)=O
inactive: LXFL 529 16.1 µM | SNB-78 19.9 µM | RXF 631 12.5 µM | HOP-18 16.7 µM | DLD-1 14.2 µM | DMS-114 17.9 µM | KM-20L2 18.6 µM | M19-MEL 13.9 µM

c1ccc(/N=C2\c3ccccc3C3=NCCCN32)cc1
inactive: LXFL 529 43.3 µM | SNB-78 > 100 µM | RXF 631 85.5 µM | DLD-1 39.2 µM | DMS-114 28.2 µM | KM-20L2 59.2 µM | XF498 85.5 µM | M19-MEL 53.6 µM

CCC(C)c1cccc(C)c1NC(=O)C(=O)Cc1nc2ccccc2s1 (centres undefined)
inactive: LXFL 529 > 100 µM | SNB-78 > 100 µM | HOP-18 > 100 µM | DLD-1 > 100 µM | DMS-114 > 100 µM | KM-20L2 > 100 µM | XF498 > 100 µM | M19-MEL > 100 µM

C/C=C1/C=CC2c3[nH]c4ccccc4c3CCN2C1 (centres undefined)
inactive: LXFL 529 > 400 µM | RXF 631 > 400 µM | HOP-18 7.11 µM | DLD-1 > 400 µM | DMS-114 296 µM | KM-20L2 > 400 µM | XF498 > 400 µM | M19-MEL > 400 µM

Cn1nc(-c2ccccc2)c2c(/C=C/c3ccc(F)cc3)onc2c1=O
inactive: LXFL 529 > 100 µM | HOP-18 11.3 µM | DLD-1 > 100 µM | KM-20L2 > 100 µM | XF498 14.8 µM | M19-MEL > 100 µM

COc1ccc(C2CCc3cc4c(cc3/C2=N/OC(C)=O)OCO4)cc1OC (centres undefined)
inactive: LXFL 529 26.4 µM | SNB-78 41.4 µM | RXF 631 25.5 µM | HOP-18 26.7 µM | DMS-114 10.7 µM | KM-20L2 22.3 µM | XF498 18.4 µM | M19-MEL 22.1 µM

Cn1c(=O)c(C(c2ccc([N+](=O)[O-])cc2)c2c(O)c3ccccc3n(C)c2=O)cc2ccccc21 (centres undefined)
inactive: LXFL 529 42.2 µM | SNB-78 43.2 µM | RXF 631 49.9 µM | HOP-18 42.5 µM | DLD-1 36.8 µM | DMS-114 56.2 µM | KM-20L2 45 µM | XF498 55.3 µM | M19-MEL 35.5 µM

Cc1cc(Cl)cc2c1NC(=O)C2=O.O=C(c1ccccc1)C(F)(F)F
inactive: LXFL 529 56.1 µM | SNB-78 24.4 µM | HOP-18 59.7 µM | DLD-1 60.1 µM | DMS-114 30.7 µM | KM-20L2 76 µM | XF498 30.1 µM | M19-MEL 13.3 µM

CC(C)=CCC/C(C)=C/CC/C(C)=C/CC/C=C(\C)CC/C=C(\C)CCC1SC1(C)C (centres undefined)
inactive: LXFL 529 > 100 µM | SNB-78 > 100 µM | HOP-18 > 100 µM | DLD-1 > 100 µM | DMS-114 75.7 µM | KM-20L2 > 100 µM | M19-MEL > 100 µM

N#CC12CC3(CCC1CCC1(C2)OCCO1)OCCO3 (centres undefined)
inactive: LXFL 529 > 100 µM | SNB-78 > 100 µM | RXF 631 > 100 µM | HOP-18 > 100 µM | DLD-1 > 100 µM | DMS-114 > 100 µM | KM-20L2 > 100 µM | XF498 > 100 µM | M19-MEL > 100 µM

COC(=O)[C@@H]1C(=O)O[C@@H](c2ccc3c(c2)OCO3)[C@@H]1C(=O)OC.COC(=O)[C@H]1C(=O)O[C@@H](c2ccc3c(c2)OCO3)[C@@H]1C(=O)OC
inactive: LXFL 529 > 100 µM | SNB-78 > 100 µM | RXF 631 > 100 µM | DLD-1 > 100 µM | DMS-114 > 100 µM | KM-20L2 > 100 µM | M19-MEL > 100 µM

Nc1ccccc1N
inactive: LXFL 529 > 100 µM | HOP-18 > 100 µM | DLD-1 > 100 µM | M19-MEL > 100 µM

COc1cc(CC(=O)c2ccc3c(c2)OCO3)cc(OC)c1OC
inactive: LXFL 529 > 100 µM | SNB-78 > 100 µM | RXF 631 53.7 µM | HOP-18 > 100 µM | DLD-1 > 100 µM | DMS-114 27.9 µM | KM-20L2 > 100 µM | M19-MEL > 100 µM
